# Test results reported in EP0076478A1, “Linear kinetic determination of bicarbonate in body fluids” (BOEHRINGER MANNHEIM CORPORATION, priority 1981, dated 1983).
# Experiments:
# Assay type in all cases: biochemical
# LDH = test: Inhibition of reaction III (oxidation of NADH by pyruvate, catalysed by serum LDH) by oxamate; conditions: for NADH oxidized: 10 minutes, 340 nm, 37°C
# Description: Using the same materials and methodology of the end-point determination described in Example III, the effectiveness of oxamate as an inhibitor of reaction III was determined. First, reaction III was followed by […] of oxamate to serum.with normal and supranormal LDH activities up to 2000 U/1 (one U/1 is an enzyme activity unit which catalyzes the transformation of one micromole per liter of pyruvate per minute at 37°C). In order to magnify the spectrophotometric signal, the sample volume was increased from 7.5 microliters to 50 microliters. The oxidation of NADH was followed for 10 minutes at 340 nm and 37°C, and the concentration of NADH oxidized was calculated from the change in absorbance over the 10 minute period.
# PEPC (wheat germ) = test: Separate enzyme assay of PEPC in the presence of varying amounts of oxamate; conditions: for PEPC % Activity: average of three replicates
# MDH (porcine heart) = molecular target: T1, MDH (porcine heart) (Sus scrofa, UniProt P00346); test: Separate enzyme assay of MDH in the presence of varying amounts of oxamate
# T1 construct: purchased Boehringer Mannheim Corporation, Indianapolis, Indiana
# T1 sequence (P00346 25-338): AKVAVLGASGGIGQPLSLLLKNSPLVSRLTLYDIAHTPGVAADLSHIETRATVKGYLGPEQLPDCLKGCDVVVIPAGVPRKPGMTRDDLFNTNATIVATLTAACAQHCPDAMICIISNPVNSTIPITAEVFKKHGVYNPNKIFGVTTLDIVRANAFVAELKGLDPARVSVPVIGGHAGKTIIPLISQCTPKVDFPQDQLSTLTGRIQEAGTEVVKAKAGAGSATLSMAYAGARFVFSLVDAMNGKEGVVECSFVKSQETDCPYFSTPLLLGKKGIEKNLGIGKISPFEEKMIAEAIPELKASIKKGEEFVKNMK
# [1] = concentrations of oxamate up to 40 mmol/l
smiles,measurement,setting,value
"NC(=O)C(=O)[O-].[Na+] [oxamate, sodium oxamate]",NADH oxidized,"LDH; 2.5 mmol/l oxamate, serum LDH 282 U/l, 2 mmol/l pyruvate added",0 µmol/L
same,NADH oxidized,"LDH; 2.5 mmol/l oxamate, serum LDH 334 U/l, 2 mmol/l pyruvate added",1.3 µmol/L
same,NADH oxidized,"LDH; 2.5 mmol/l oxamate, serum LDH 340 U/l, 2 mmol/l pyruvate added",1.3 µmol/L
same,NADH oxidized,"LDH; 2.5 mmol/l oxamate, serum LDH 402 U/l, 2 mmol/l pyruvate added",0 µmol/L
same,NADH oxidized,"LDH; 2.5 mmol/l oxamate, serum LDH 508 U/l, 2 mmol/l pyruvate added",3.5 µmol/L
same,NADH oxidized,"LDH; 2.5 mmol/l oxamate, serum LDH 600 U/l, 2 mmol/l pyruvate added",2.6 µmol/L
same,NADH oxidized,"LDH; 2.5 mmol/l oxamate, serum LDH 1200 U/l, 2 mmol/l pyruvate added",7.7 µmol/L
same,NADH oxidized,"LDH; 2.5 mmol/l oxamate, serum LDH 1470 U/l, sample not spiked with pyruvate",1.0 µmol/L
same,NADH oxidized,"LDH; 2.5 mmol/l oxamate, serum LDH normal (average of 10 normal sera), 2 mmol/l pyruvate added",1.4 µmol/L
same,NADH oxidized,"LDH; 5 mmol/l oxamate, serum LDH 282 U/l, 2 mmol/l pyruvate added",0 µmol/L
same,NADH oxidized,"LDH; 5 mmol/l oxamate, serum LDH 334 U/l, 2 mmol/l pyruvate added",0.3 µmol/L
same,NADH oxidized,"LDH; 5 mmol/l oxamate, serum LDH 340 U/l, 2 mmol/l pyruvate added",0 µmol/L
same,NADH oxidized,"LDH; 5 mmol/l oxamate, serum LDH 402 U/l, 2 mmol/l pyruvate added",0 µmol/L
same,NADH oxidized,"LDH; 5 mmol/l oxamate, serum LDH 508 U/l, 2 mmol/l pyruvate added",0.3 µmol/L
same,NADH oxidized,"LDH; 5 mmol/l oxamate, serum LDH 600 U/l, 2 mmol/l pyruvate added",0.2 µmol/L
same,NADH oxidized,"LDH; 5 mmol/l oxamate, serum LDH 1200 U/l, 2 mmol/l pyruvate added",0.9 µmol/L
same,NADH oxidized,"LDH; 5 mmol/l oxamate, serum LDH 1470 U/l, sample not spiked with pyruvate",0 µmol/L
same,NADH oxidized,"LDH; 5 mmol/l oxamate, serum LDH normal (average of 10 normal sera), 2 mmol/l pyruvate added",0.5 µmol/L
same,NADH oxidized,"LDH; 10 mmol/l oxamate, serum LDH 282 U/l, 2 mmol/l pyruvate added",0 µmol/L
same,NADH oxidized,"LDH; 10 mmol/l oxamate, serum LDH 334 U/l, 2 mmol/l pyruvate added",0 µmol/L
same,NADH oxidized,"LDH; 10 mmol/l oxamate, serum LDH 340 U/l, 2 mmol/l pyruvate added",0 µmol/L
same,NADH oxidized,"LDH; 10 mmol/l oxamate, serum LDH 402 U/l, 2 mmol/l pyruvate added",0 µmol/L
same,NADH oxidized,"LDH; 10 mmol/l oxamate, serum LDH 508 U/l, 2 mmol/l pyruvate added",0.1 µmol/L
same,NADH oxidized,"LDH; 10 mmol/l oxamate, serum LDH 600 U/l, 2 mmol/l pyruvate added",0 µmol/L
same,NADH oxidized,"LDH; 10 mmol/l oxamate, serum LDH 1200 U/l, 2 mmol/l pyruvate added",0.3 µmol/L
same,NADH oxidized,"LDH; 10 mmol/l oxamate, serum LDH 1470 U/l, sample not spiked with pyruvate",0 µmol/L
same,NADH oxidized,"LDH; 10 mmol/l oxamate, serum LDH 2000 U/l, 2 mmol/l pyruvate added",0 µmol/L
same,NADH oxidized,"LDH; 10 mmol/l oxamate, serum LDH normal (average of 10 normal sera), 2 mmol/l pyruvate added",0.3 µmol/L
same,NADH oxidized,"LDH; 20 mmol/l oxamate, serum LDH 282 U/l, 2 mmol/l pyruvate added",0 µmol/L
same,NADH oxidized,"LDH; 20 mmol/l oxamate, serum LDH 334 U/l, 2 mmol/l pyruvate added",0 µmol/L
same,NADH oxidized,"LDH; 20 mmol/l oxamate, serum LDH 340 U/l, 2 mmol/l pyruvate added",0 µmol/L
same,NADH oxidized,"LDH; 20 mmol/l oxamate, serum LDH 402 U/l, 2 mmol/l pyruvate added",0 µmol/L
same,NADH oxidized,"LDH; 20 mmol/l oxamate, serum LDH 508 U/l, 2 mmol/l pyruvate added",0 µmol/L
same,NADH oxidized,"LDH; 20 mmol/l oxamate, serum LDH 600 U/l, 2 mmol/l pyruvate added",0 µmol/L
same,NADH oxidized,"LDH; 20 mmol/l oxamate, serum LDH 1200 U/l, 2 mmol/l pyruvate added",0 µmol/L
same,NADH oxidized,"LDH; 20 mmol/l oxamate, serum LDH 1470 U/l, sample not spiked with pyruvate",0 µmol/L
same,NADH oxidized,"LDH; 20 mmol/l oxamate, serum LDH 2000 U/l, 2 mmol/l pyruvate added",0 µmol/L
same,NADH oxidized,"LDH; 20 mmol/l oxamate, serum LDH normal (average of 10 normal sera), 2 mmol/l pyruvate added",0 µmol/L
same,LDH activity,LDH; oxamate concentration of 10-20 mmol/l,completely inhibited
same,PEPC % Activity,PEPC (wheat germ); Oxamate 5 mmol/l,102 ± 2%
same,PEPC % Activity,PEPC (wheat germ); Oxamate 10 mmol/l,95 ± 11%
same,PEPC % Activity,PEPC (wheat germ); Oxamate 20 mmol/l,103 ± 1%
same,PEPC % Activity,PEPC (wheat germ); Oxamate 40 mmol/l,99 ± 2%
same,PEPC % Activity,PEPC (wheat germ); Oxamate 80 mmol/l,86 ± 4%
same,effect on PEPC,PEPC (wheat germ); [1],no effect
same,effect on PEPC,PEPC (wheat germ); varying amounts of oxamate,no significant effect
same,activity at 5000 µM,"MDH (porcine heart); Oxamate 5 mmol/l, average of three replicates",102 ± 2%
same,activity at 10000 µM,"MDH (porcine heart); Oxamate 10 mmol/l, average of three replicates",102 ± 2%
same,activity at 20000 µM,"MDH (porcine heart); Oxamate 20 mmol/l, average of three replicates",99 ± 1%
same,activity at 40000 µM,"MDH (porcine heart); Oxamate 40 mmol/l, average of three replicates",98 ± 5%
same,activity at 80000 µM,"MDH (porcine heart); Oxamate 80 mmol/l, average of three replicates",92 ± 2%
same,effect on MDH,MDH (porcine heart); [1],no effect
same,effect on MDH,MDH (porcine heart); varying amounts of oxamate,no significant effect
